In patent publication US20020115642A1, “Beta-lactam antibiotics” (priority 2000, published 2002):
Converted amounts (≈) assume the structure as drawn. Where two headings read alike, the source gives them in different places.

Columns and labels:
Experiment in all cases: Susceptibility testing (MIC, modified NCCLS method)
K. pneumoniae = type: cell-based, Klebsiella pneumoniae
Experimental: (§1) The NCCLS (National Committee for Clinical Laboratory Standards) method to determine MIC's of antimicrobial compounds was modified for high-throughput screening. All stocks of tested compounds were prepared in either water or in dimethylsulfoxide (DMSO), depending on the solubility. […] Briefly 20 2-fold serial dilutions of testing compounds from the highest concentration were made in a 384-well microtiter plate. Each well was inoculated with testing bacteria in broth to a final concentration of approximately 1-1.5×10^6 cells/ml. Bacterial growth was determined by the increase of optical density at 600 nm using a microplate reader (Tecan SpectraFluor Plus).

E. coli N = type: cell-based, Escherichia coli; details: E. coli (N)
Experimental: as §1

E. coli/TEM-1 = type: cell-based, Escherichia coli
Experimental: as §1

P. aeruginosa = type: cell-based, Pseudomonas aeruginosa
Experimental: as §1

Staphylococcus aureus = type: cell-based
Experimental: as §1

E. aerogenes = type: cell-based, Enterobacter aerogenes
Experimental: as §1

E. faecalis = type: cell-based, Enterococcus faecalis
Experimental: as §1

E. cloacae = type: cell-based, Enterobacter cloacae
Experimental: as §1

[1] = Klebsiella pneumoniae, ATCC51503, K. pneumoniae ATCC 51503, read-out: MIC
[2] = Klebsiella pneumoniae, ATCC700721, K. pneumoniae ATCC 700721, read-out: MIC
[3] = Escherichia coli, read-out: MIC
[4] = Pseudomonas aeruginosa, ATCC21726, P. aeruginosa ATCC 21726, read-out: MIC
[5] = Pseudomonas aeruginosa, ATCC29872, P. aeruginosa ATCC 29872, read-out: MIC
[6] = Staphylococcus aureus, ATCC11632, S. aureus ATCC 11632, read-out: MIC
[7] = Staphylococcus aureus, ATCC33594, S. aureus ATCC 33594, read-out: MIC
[8] = Staphylococcus aureus, ATCC700260, S. aureus ATCC 700260, read-out: MIC
[9] = Staphylococcus aureus, ATCC700699, S. aureus ATCC 700699, read-out: MIC
[10] = Klebsiella aerogenes, ATCC35028, E. aerogenes ATCC 35028, read-out: MIC
[11] = Enterococcus faecalis, ATCC49757, E. faecalis ATCC 49757, read-out: MIC
[12] = Enterococcus faecalis, ATCC700802, E. faecalis ATCC 700802, read-out: MIC
[13] = Enterobacter cloacae, ATCC23355, E. cloacae ATCC 23355, read-out: MIC

Molecule | MIC (K. pneumoniae; K. pneumoniae ATCC 700721) | MIC (P. aeruginosa; P. aeruginosa ATCC 21726) | MIC (Staphylococcus aureus; S. aureus ATCC 700260) | MIC (K. pneumoniae; K. pneumoniae ATCC 51503) | MIC (Staphylococcus aureus; S. aureus ATCC 700699) | MIC (E. aerogenes; E. aerogenes ATCC 35028) | MIC (E. faecalis; E. faecalis ATCC 49757) | MIC (K. pneumoniae; [2]) | MIC (P. aeruginosa; [4]) | MIC (Staphylococcus aureus; [8]) | MIC (Staphylococcus aureus; [9]) | MIC (P. aeruginosa; P. aeruginosa ATCC 29872) | MIC (Staphylococcus aureus; S. aureus ATCC 11632) | MIC (Staphylococcus aureus; S. aureus ATCC 33594) | MIC (E. faecalis; E. faecalis ATCC 700802) | MIC (E. cloacae; E. cloacae ATCC 23355) | other results
3-(2-(2,4-Dichlorophenoxy)-5-chlorophenoxy)methyl-7-(1-phenyl-2-aminoacetamido)-3-cephem-4-carboxylic acid [Compound 37] | 8 µg/mL | >16 µg/mL | 3.9 ng/mL | – | – | – | – | – | – | – | – | – | – | – | – | – | MIC (E. coli N): 4 µg/mL; MIC (E. coli/TEM-1; E. coli/Tem-1): 0.12 µg/mL
3-(2-(2,4-Dichlorophenoxy)-5-chlorophenoxy)methyl-7-[4-(2-aminothiazole)-yl-2-acetamido]-3-cephem-4-carboxylic acid [Compound 39] | – | >16 µg/mL | 2 ng/mL | 16 µg/mL | 4000 ng/mL | >16 µg/mL | 16 µg/mL | – | – | – | – | – | – | – | – | – | MIC (E. coli N): 1 µg/mL; MIC (E. coli/TEM-1; E. coli/Tem-1): 0.063 µg/mL
O=C(Cc1cccs1)NC1C(=O)N2C(C(=O)O)C(COC(=O)Oc3cc(Cl)ccc3Oc3ccc(Cl)cc3Cl)=CS[C@H]12 (stereo partly shown) [Compound 15, 3-((2-(2,4-Dichlorophenoxy)-5-chlorophenoxy)carbonyloxy)methyl-7-(2-thienylacetamido)-2-cephem-4-carboxylic acid] | – | – | – | – | – | – | – | 1.96 µg/mL (≈ 2.93 µM) | > 15.7 µg/mL | 61 ng/mL (≈ 0.0911 µM) | 61 ng/mL (≈ 0.0911 µM) | – | – | – | – | – | MIC (K. pneumoniae; [1]): 1.96 µg/mL (≈ 2.93 µM); MIC (E. coli N; [3]): 0.008 µg/mL (≈ 0.0119 µM); MIC (E. coli/TEM-1; Escherichia coli): 0.0031 µg/mL (≈ 0.00463 µM); MIC (P. aeruginosa; [5]): > 15.7 µg/mL; MIC (Staphylococcus aureus; [6]): 610 ng/mL (≈ 0.911 µM); MIC (Staphylococcus aureus; [7]): 61 ng/mL (≈ 0.0911 µM); MIC (E. aerogenes; [10]): 0.98 µg/mL (≈ 1.46 µM); MIC (E. faecalis; [11]): > 15.7 µg/mL; MIC (E. faecalis; [12]): 15.7 µg/mL (≈ 23.4 µM); MIC (E. cloacae; [13]): 0.25 µg/mL (≈ 0.373 µM)
O=C(Cc1cccs1)NC1C(=O)N2C(C(=O)O)=C(COC(=O)Oc3cc(Cl)ccc3Oc3ccc(Cl)cc3Cl)C[S+]([O-])[C@H]12 (stereo partly shown) [Compound 17, 3-((2-(2,4-Dichlorophenoxy)-5-chlorophenoxy)carbonyloxy)methyl-7-(2-thienylacetamido)-1-oxo-3-cephem-4-carboxylic acid] | – | – | – | – | – | – | – | 1.03 µg/mL (≈ 1.5 µM) | > 16.5 µg/mL | 0.063 ng/mL (≈ 9.18e-05 µM) | 0.25 ng/mL (≈ 0.000364 µM) | – | – | – | – | – | MIC (E. coli N; [3]): 0.016 µg/mL (≈ 0.0233 µM); MIC (E. coli/TEM-1; Escherichia coli): 0.032 µg/mL (≈ 0.0467 µM)
O=C(Cc1cccs1)NC1C(=O)N2C(C(=O)O)=C(CC=COc3cc(Cl)ccc3Oc3ccc(Cl)cc3Cl)CSC12 (stereo not shown) [Compound 24, 3-(1-(2-(2,4-Dichlorophenoxy)-5-chlorophenoxy)-3-propenyl)-7-(2-thienylacetamido)-3-cephem-4-carboxylic acid] | 2.07 µg/mL (≈ 3.17 µM) | >16.6 µg/mL | 0.01 ng/mL (≈ 1.53e-05 µM) | 2.07 µg/mL (≈ 3.17 µM) | 32 ng/mL (≈ 0.0491 µM) | 4.14 µg/mL (≈ 6.35 µM) | 4.14 µg/mL (≈ 6.35 µM) | – | – | – | – | >16.6 µg/mL | 65 ng/mL (≈ 0.0997 µM) | 65 ng/mL (≈ 0.0997 µM) | 8.28 µg/mL (≈ 12.7 µM) | 2.07 µg/mL (≈ 3.17 µM) | MIC (E. coli N): 0.26 µg/mL (≈ 0.399 µM); MIC (E. coli/TEM-1; E. coli/Tem-1): 0.016 µg/mL (≈ 0.0245 µM)
O=C(Cc1cccs1)NC1C(=O)N2C(C(=O)O)=C(C=CCOc3ccc(Cl)cc3C(=O)Nc3ccc(Cl)c(Cl)c3)CS[C@H]12 (stereo partly shown) [Compound 35, 3-{3-[4-Chloro-2-(3,4-dichloro-phenylcarbamoyl)-phenoxy]-propenyl}-7-(2-thiophene-acetmido)-3-cephem-4-carboxylic acid] | >32 µg/mL | >32 µg/mL | 250 ng/mL (≈ 0.368 µM) | >32 µg/mL | >32000 ng/mL | >32 µg/mL | 8 µg/mL (≈ 11.8 µM) | – | – | – | – | >32 µg/mL | 63 ng/mL (≈ 0.0928 µM) | 63 ng/mL (≈ 0.0928 µM) | >32 µg/mL | >32 µg/mL | –
O=C(O)CCC(=O)N[C@@H]1C(=O)N2C(C(=O)O)=C(COc3cc(Cl)ccc3Oc3ccc(Cl)cc3Cl)CS[C@H]12 [Compound 36] | – | – | – | – | – | – | – | > 32 µg/mL | > 32 µg/mL | > 32000 ng/mL | > 32000 ng/mL | – | – | – | – | – | MIC (K. pneumoniae; [1]): > 32 µg/mL; MIC (P. aeruginosa; [5]): > 32 µg/mL; MIC (Staphylococcus aureus; [6]): > 32000 ng/mL; MIC (Staphylococcus aureus; Staphylococcus aureus, ATCC33591, S. aureus ATCC 33591, read-out: MIC): 2000 ng/mL (≈ 3.32 µM); MIC (Staphylococcus aureus; [7]): > 32000 ng/mL; MIC (E. aerogenes; [10]): > 32 µg/mL; MIC (E. faecalis; [11]): > 32 µg/mL; MIC (E. faecalis; [12]): > 32 µg/mL; MIC (E. cloacae; [13]): > 32 µg/mL
NC(C(=O)NC1C(=O)N2C(C(=O)O)=C(COc3cc(Cl)ccc3Oc3ccc(Cl)cc3Cl)CS[C@H]12)c1ccc(O)cc1 (stereo partly shown) [Compound 41, 3-(2-(2,4-Dichlorophenoxy)-5-chlorophenoxy)methyl-7-[2-amino-2-(4-hydroxy-phenyl)acetamido)-3-cephem-4-carboxylic acid] | – | – | – | – | – | – | – | 8 µg/mL (≈ 12.3 µM) | > 32 µg/mL | 63 ng/mL (≈ 0.0968 µM) | 63 ng/mL (≈ 0.0968 µM) | – | – | – | – | – | MIC (K. pneumoniae; [1]): 8 µg/mL (≈ 12.3 µM); MIC (E. coli N; [3]): 0.25 µg/mL (≈ 0.384 µM); MIC (P. aeruginosa; [5]): > 32 µg/mL; MIC (Staphylococcus aureus; [6]): 63 ng/mL (≈ 0.0968 µM); MIC (Staphylococcus aureus; [7]): 63 ng/mL (≈ 0.0968 µM); MIC (E. aerogenes; [10]): 4 µg/mL (≈ 6.15 µM); MIC (E. faecalis; [11]): 32 µg/mL (≈ 49.2 µM); MIC (E. faecalis; [12]): 32 µg/mL (≈ 49.2 µM); MIC (E. cloacae; [13]): 1 µg/mL (≈ 1.54 µM)
CON=C(C(=O)NC1C(=O)N2C(C(=O)O)=C(COc3cc(Cl)ccc3Oc3ccc(Cl)cc3Cl)CSC12)c1csc(N)n1 (stereo not shown) [Compound 44] | 8 µg/mL (≈ 11.7 µM) | >32 µg/mL | 63 ng/mL (≈ 0.092 µM) | 8 µg/mL (≈ 11.7 µM) | >32000 ng/mL | >32 µg/mL | 32 µg/mL (≈ 46.7 µM) | – | – | – | – | >32 µg/mL | 500 ng/mL (≈ 0.73 µM) | 63 ng/mL (≈ 0.092 µM) | 32 µg/mL (≈ 46.7 µM) | 4 µg/mL (≈ 5.84 µM) | –
CC(=O)NC1C(=O)N2C(C(=O)O)=C(COc3cc(Cl)ccc3Oc3ccc(Cl)cc3Cl)CSC12 (stereo not shown) [Compound 45] | 2 µg/mL (≈ 3.68 µM) | >32 µg/mL | 63 ng/mL (≈ 0.116 µM) | 8 µg/mL (≈ 14.7 µM) | 16000 ng/mL (≈ 29.4 µM) | >32 µg/mL | 16 µg/mL (≈ 29.4 µM) | – | – | – | – | >32 µg/mL | >32000 ng/mL | 63 ng/mL (≈ 0.116 µM) | 32 µg/mL (≈ 58.8 µM) | >32 µg/mL | –
C[C@@H](O)[C@H]1C(=O)N2C(C(=O)O)=C(SCCN=CN)C[C@H]12 [Imipenem, reference compound] | – | – | – | – | – | – | – | – | – | – | – | – | – | – | – | – | MIC range (K. pneumoniae; K. pneumoniae (5)): 0.063 to 8 µg/mL; MIC (K. pneumoniae; Klebsiella pneumoniae, K. pneumoniae (5), read-out: GM* MIC (geometric mean)): 0.46 µg/mL (≈ 1.54 µM); MIC range (E. aerogenes; E. aerogenes (5)): 0.5 to 1 µg/mL; MIC (E. aerogenes; Klebsiella aerogenes, E. aerogenes (5), read-out: GM* MIC (geometric mean)): 0.66 µg/mL (≈ 2.2 µM); MIC range (E. cloacae; E. cloacae (1)): 0.0078 µg/mL (≈ 0.0261 µM); MIC (E. cloacae; Enterobacter cloacae, E. cloacae (1), read-out: GM* MIC (geometric mean)): 0.0078 µg/mL (≈ 0.0261 µM)
